Assays:
[1] = molecular target: T1, human 11β-HSD1 (Homo sapiens, UniProt P28845); experiment: 11β-HSD1 enzyme kinetics (apparent KM and Vmax) in microsomes; assay type: biochemical
T1 construct: expressed in transfected cells
Description: Microsomes were prepared as described earlier with minor modifications ([38]). Briefly, HEK-293 cells stably expressing human 11β-HSD1 and H6PDH were cultured until they reached confluence. Then, they were washed with ice-cold PBS and resuspended to a final concentration of ∼2 × 10^7 cells/ml in ice-cold buffer A [50 mM Tris (pH 7.5), 1 mM EDTA, 100 mM NaCl]. Typically, 6 ml of this suspension were prepared, corresponding to 1.2 × 10^8 cells. Following homogenization with 20 strokes in a glass potter on ice, the preparation was sonicated and centrifuged (9.000 g, 4°C for 30 min). The supernatant was removed and subjected to ultracentrifugation at 105,000 g, 4°C for 70 min. The obtained pellet was resuspended in buffer B [20 mM Tris (pH 7.5), 1 mM EDTA, 10% glycerol] and the ultracentrifugation step repeated. The microsomal fraction was again resuspended in buffer B and the total protein concentration determined using BCA assay ([39]). The microsomes were immediately frozen on dry ice and stored at −80°C.
Microsomes (1–20 μg) expressing 11β-HSD1 and H6PDH were incubated for 20 min with 1 mM of NADPH, 2 mM of glucose-6-phosphate, 0.1 units of glucose-6-phosphate dehydrogenase (from Saccharomyces cerevisiae), and different concentrations (62.5–2,000 nM) of 7k27OHC, adapted to a total assay volume of 50 μl with TS2 buffer [100 mM NaCl, 1 mM EGTA, 1 mM EDTA, 1 mM MgCl2, 250 mM sucrose, 20 mM Tris/HCl (pH 7.4)]. Oxysterols were extracted by mixing the samples with ice-cold ethyl acetate containing 100 nM deuterium-labeled 7β27OHC as internal standard and 1.5% (v/v) BHT/TPP solution as antioxidant. […] After reconstitution in 50 μl of methanol:ultra-pure water (1:1, v/v), the samples were centrifuged (4°C, 16,000 g for 10 min) and analyzed by UHPLC-MS/MS.
The substrate conversion was kept below 30% in all reactions. Apparent kinetic parameters (KM and Vmax) were determined by nonlinear regression and under the assumption of Michaelis-Menten kinetics. […]

[2] = molecular target: T2, 11β-HSD2 (Homo sapiens, UniProt P80365); experiment: 11β-HSD2 enzyme kinetics (apparent KM and Vmax) in HEK-293 cell lysate; assay type: biochemical
T2 construct: expressed in transfected cells
T2 sequence (P80365 1-405): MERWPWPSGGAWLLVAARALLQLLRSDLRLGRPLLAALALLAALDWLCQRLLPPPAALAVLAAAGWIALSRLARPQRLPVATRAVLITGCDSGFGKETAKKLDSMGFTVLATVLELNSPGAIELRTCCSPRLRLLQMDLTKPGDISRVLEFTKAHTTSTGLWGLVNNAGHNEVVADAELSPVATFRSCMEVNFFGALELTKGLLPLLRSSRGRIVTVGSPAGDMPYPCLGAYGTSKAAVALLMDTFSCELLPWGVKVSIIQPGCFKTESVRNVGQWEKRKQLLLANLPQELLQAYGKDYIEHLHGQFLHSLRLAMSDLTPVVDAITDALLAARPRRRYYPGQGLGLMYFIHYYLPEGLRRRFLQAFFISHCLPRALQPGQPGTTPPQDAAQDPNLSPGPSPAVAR
Description: For 11β-HSD2 activity measurements, 0.8 μg of HEK-293 cell lysate stably expressing 11β-HSD2 was incubated with different concentrations (50–800 nM) of 7β27OHC and 500 μM of NAD^+ for 10–30 min. Oxysterols were extracted as described in the 11β-HSD-dependent metabolism of 7-oxygenated 27OHCs in intact cells section.
The substrate conversion was kept below 30% in all reactions. Apparent kinetic parameters (KM and Vmax) were determined by nonlinear regression and under the assumption of Michaelis-Menten kinetics. Data (mean ± SD) were obtained from three independent experiments.

[3] = oxoreduction of substrate by 11β-HSD1, microsomes
[4] = oxidation of substrate by 11β-HSD2, cell lysate

T1 sequence (P28845 whole entry): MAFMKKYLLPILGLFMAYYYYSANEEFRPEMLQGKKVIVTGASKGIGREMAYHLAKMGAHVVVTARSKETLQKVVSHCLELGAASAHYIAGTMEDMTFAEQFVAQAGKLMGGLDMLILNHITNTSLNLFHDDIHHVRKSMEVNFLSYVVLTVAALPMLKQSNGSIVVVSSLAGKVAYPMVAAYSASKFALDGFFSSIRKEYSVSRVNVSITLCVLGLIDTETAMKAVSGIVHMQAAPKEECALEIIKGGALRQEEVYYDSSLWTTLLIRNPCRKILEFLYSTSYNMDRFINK

For `CC(CO)CCC[C@@H](C)[C@H]1CC[C@H]2[C@@H]3C(=O)C=C4C[C@@H](O)CC[C@]4(C)[C@H]3CC[C@]12C` (stereo partly drawn) [7k27OHC, 7-keto,27-hydroxycholesterol], the KMapp [1, 3] was 39 ± 12 nM, the Vmax app [1, 3] was 4.3 ± 0.2 nmol·h^−1·mg total protein^−1 and the “Affinity of 11β-HSD1, times higher than for other endogenous substrates” value ([1]; versus cortisone, 11-DHC, 7kC, 7oxoLCA) was 6-25 times.
In the case of `CC(CO)CCC[C@@H](C)[C@H]1CC[C@H]2[C@@H]3[C@@H](O)C=C4C[C@@H](O)CC[C@]4(C)[C@H]3CC[C@]12C` (stereo partly drawn) [7β27OHC, 7β,27-dihydroxycholesterol], the KMapp [2, 4] is reported as 56 ± 11 nM, the Vmax app [2, 4] is reported as 10 ± 0.4 nmol·h^−1·mg total protein^−1 and the “Substrate affinity of 11β-HSD2, times higher than for cortisol” value ([2]; versus cortisol KMapp ∼200 nM) is reported as about 4 times.

From PMC6718442, “11β-Hydroxysteroid dehydrogenases control access of 7β,27-dihydroxycholesterol to retinoid-related orphan receptor γ” (Journal of Lipid Research, 2019)
